Assay results taken from patent US10525024B2, “Methods for rescuing phenobarbital-resistance of seizures by ANA-12 or ANA-12 in combination with CLP290” (THE JOHNS HOPKINS UNIVERSITY, priority 2014, dated 2020).
Values joined by “and” are separate entries in the source; they are usually repeats but may differ in a detail not shown here. Identical values can stand only once. Like-named read-outs stand apart in the source and are kept apart here.

Assays:
KCC2 = test: Western blot of KCC2 expression, ipsilateral normalized to contralateral hemisphere, post-ligation; format: in vivo, mouse
Protocol: Western blot at 3 h and 24 h post-ligation. All animals were anesthetized with chloral hydrate (90 mg/ml; IP) before being transcardially perfused. The whole brains of P7 and P10 pups were harvested at either 3 h or 24 h post-ligation, and were frozen as ipsilateral and contralateral hemisphere. The brains were stored in −80° C. until further use. Homogenized whole brain lysates were suspended in cell lysis buffer with 10% protease/phosphatase inhibitor cocktail. Total protein concentrations were quantified through Bradford Assay (Bio-Rad) at 570 nm wavelength, and the samples were diluted for 50 ug of protein at 20 ul of loading volume for gel electrophoresis.
Samples were run on 4-20% gradient 1.5 mm 15 wells SDS gels (Invitrogen) for 100-120 min with 130V, and were transferred onto nitrocellulose membranes for overnight wet-transfer for minimum of 18 hours at 30V. After the transfer, the nitrocellulose membranes underwent 1 h blocking step in odyssey buffer, before overnight incubation in primary antibodies: rabbit α-KCC2 (1:1000, Millipore; Cat. No. 07-432); rabbit α-NKCC1 (1:500, Millipore, Cat. No. AB3560P); mouse α-actin (1:10000, LI-COR Biosciences, Cat. No. 926-42214). On the next day, nitrocellulose membranes were washed with TBS containing tween detergent, and then were incubated in […] secondaries for 1 h (1:5000 for both goat α-mouse 680LT and goat α-rabbit 800CW, LI-COR Biosciences). Chemiluminescent protein bands were analyzed using the Odyssey infrared imaging system 2.1 (LI-COR Biosciences). The optical density of each protein sample was normalized to the actin bands run on each lane for internal control. The expression levels of the proteins of interest in ipsilateral hemispheres were normalized to the same in contralateral hemispheres for each pup. The human brain was recently shown to express two splice variants of NKCC1 (a and b) and the NKCC1 probe used in this study and all previous studies referenced here can only detect the NKCC1a isoform because the targeted epitope site of this probe overlaps with exon 21 that is spliced in the dominant isoform NKCC1b. A reliable pan-NKCC1 probe is not currently available.
A smaller sample of naïve age-matched controls (n=8, 4 each at P8 and P11, equal sexes) was run with the 24 h WB data (brains harvested at P8 and P11, i.e.; 24 h after P7 and P10 ligations). […] This pilot established that contralateral hemispheres were ideal controls for normalization of KCC2 and NKCC1 expression in ipsilateral injured hemispheres for this study similar to previously reported conclusions in another ischemia model.

[1] = tested on: CD1 pups with unilateral carotid ligation (ischemic seizures); details: for latency to the 1st-detected seizure: drug given IP immediately after ligation
[2] = adult mouse, 0.5 mg/kg IP, cited from earlier work
[3] = tested on: CD1 mice with permanent unilateral carotid-ligation (acute ischemic seizures); test: Video-EEG seizure burden after carotid ligation at P7, P10, P12 with PB and adjunct BTN (Example 2); format: in vivo, mouse; details: for effect of adjunct BTN on PB-efficacy: BTN 0.1-0.2 mg/kg IP 2 h post-ligation; for reduction of seizure burden: PB 25 mg/kg IP 1 h after ligation
Protocol: Experimental design. […] All surgery was performed under isoflurane general anesthesia, and all efforts were made to minimize suffering. All litters of CD1 mice were purchased from Charles River Laboratories Inc. (Wilmington, Mass.). Newly born litters of pups arrived at postnatal 3 or 4 days old, and were allowed to acclimate. […] Ninety two pups from 12 litters were included in the video-EEG study (n=48 male and n=44 female). The susceptibility to ischemic seizures was tested at 3 developmental ages i.e., 7, 10 and 12 days old CD1 pups (n=80 ligated and 12 shams). […] The pups underwent permanent ligation and sham surgeries followed by 3 h of EEG recording each, as described in methods (total pups=92 of which ligates P7=29, P10=24 and P12=27 and sham P7=5, P10=4 and P12=3; see Table 2). From the ligated group of pups (total n=80), the ligated-control pups also underwent 3 h EEG recordings to evaluate natural progression of ischemic seizure burden over the duration of treatment efficacy evaluated in this study (total pups n/n=26/80, P7=8, P10=9 and P12=9). […] Since the severity of stroke-injury and seizure varies between pups, the baseline EEG of each pup served as an important internal control. Additionally, since the exact time-point of onset for ischemia in human neonates is not known and may not be a single massive event, the 1 h of non-treatment also served as an important delay expected in the treatment of neonatal seizures that are detected hours after stroke in humans.
Surgical procedure for ischemic insult and electrode implantation. Animals were anesthetized with 2% isoflurane. The right common carotid artery was permanently double-ligated with 6-0 surgisilk and the outer skin closed with 6-0 monofilament nylon to induce ischemia (i.e.; ischemia was induced by unilateral common carotid ligation alone. Unlike other rat models commonly used for neonatal stroke, no global hypoxia is needed to induce acute ischemic seizures). Since the ligated carotid is not transected in our model, the intact pulsating carotid artery with silk ligatures can lead to reperfusion over time in this model. The constrictive efficacy (which drops cerebral perfusion to 40% or less) of the silk ligatures is known to diminish, due to the loss of their tensile strength in-vivo against the pulsating artery as a function of time. […] The animals were then implanted with three sub-dermal EEG electrodes (1 recording, 1 reference, and 1 ground) on the skull overlying the parietal cortex using bregma as a reference. Scalp wire electrodes made for sub-dermal use in humans (IVES EEG; Model # SWE-L25-MA, USA) were implanted, sub-dermally fixed with adhesive, in the pups. […] In this study, the recording and reference electrodes were implanted less than 1 cm apart. Pups were then allowed to recover from anesthesia in a 36° C. isothermal chamber for 3 h recording of video-EEG (FIG. 12). At the end of the recording session, the pups were returned to the dams after removal of the sub-dermal electrodes and application of local anesthetic medication.
In vivo synchronous video-EEG recording. […] Data acquisition was done using PAL-8400 software with synchronous video capture (Pinnacle Technology Inc.). […] The files were stored in .EDF format and scored in real time using the review and scoring software package.

HIE seizures = details: neonates, cited from earlier work
[4] = cited from earlier work
ischemic seizures = test: CLP290 in the neonatal ischemic seizure model, 3 h EEG (Example 3); details: 20 mg/kg, n=4, vs vehicle (HPCD)
Protocol: Arrow heads indicate time of 1 hourly drug injections from start of the 3 h recording.

Structure (SMILES): O=C(Nc1ccccc1C(=O)NC1CCCCNC1=O)c1cc2ccccc2s1 (stereo not drawn) [ANA12, N-[2-[[(Hexahydro-2-oxo-1H-azepin-3-yl)amino]carbonyl]phenyl] benzo[b]thiophene-2-carboxamide]
- effect on post-ischemic degradation of KCC2 expression (KCC2; 3 h post-ischemia): underwent degradation of KCC2
- downregulation of KCC2 expression (KCC2; P7, 3 h post-ischemia): 15-20%
- KCC2 degradation compared to the contralateral hemisphere (KCC2; P7, 24 h post-ischemia): 15-18%
- effect on post-ischemic degradation of KCC2 expression (KCC2; P7 and P10, 24 h post-ischemia): failed to prevent the post-ischemic KCC2 degradation
- KCC2 degradation compared to the contralateral hemisphere (KCC2; P10, 24 h post-ischemia): ~12%
- latency to the 1st-detected seizure ([1]; P7): 202.3 ± 38.8 s
- post-treatment mortality rate vs vehicle (Fisher's exact test) ([1]; P7 p=0.58, P10 p=1.00): did not show a statistical significance
- anti-seizure effect on EEG seizure burden ([1]; P7 pups): did not have any anti-seizure effect
- age- and sex-dependent seizure susceptibility to ischemic seizures ([1]; P7 vs P10, baseline seizure burden): not altered
- latency to the 1st-detected seizure ([1]; P10): 245.8 ± 39.8 s
- anti-seizure effect on EEG seizure burden ([1]; P10 pups): did not have any anti-seizure effect
- brain concentration ([2]; 0.5 h): 400 nM
- brain concentration ([2]; 6 h): 10 nM

Structure (SMILES): CCCCNc1cc(C(=O)O)cc(S(N)(=O)=O)c1Oc1ccccc1 [BTN, bumetanide]
- effect of adjunct BTN on PB-efficacy ([3]; P7): did not improve PB-efficacy
- anti-seizure effect on total time spent seizing on EEG ([3]; P7, PB 25 mg/kg at 1 h, BTN 0.1-0.2 mg/kg at 2 h post-ligation): failed to have any significant anti-seizure effect
- effect of adjunct BTN on PB-efficacy ([3]; P10): PB-induced seizure suppression was lost
- effect of adjunct BTN on PB-efficacy ([3]; P12): failed to act as an effective adjuvant
- electrographic seizure scores after follow-on BTN ([3]; any age (P7, P10, P12)): did not add any significant therapeutic benefit
- adjunct anti-seizure effect of BTN given 1 h after PB ([1]; P10, ANA12+PB treated pups, BTN 0.1-0.2 mg/kg IP, 3rd h): significantly blunted PB-efficacy by increasing the seizure burden
- efficacy for HIE seizures (HIE seizures; clinical trial terminated): inefficacy
- safety finding (HIE seizures): ototoxicity
- half-life ([4]; rodents): < 30 min and ~30 min

Structure (SMILES): O=C1N=C(N2CCCCN2)S/C1=C\c1ccc(F)cc1OC(=O)N1CCCC1 [CLP290]
- anti-seizure activity alone (ischemic seizures): can act independently as an anti-seizure agent

Structure (SMILES): CCC1(c2ccccc2)C(=O)NC(=O)NC1=O [PB, phenobarbital]
- reduction of seizure burden ([3]; P10): 61%
- reduction of seizure burden ([3]; P12): 64%
- percent PB seizure suppression over baseline ([1]; P10 pups, ANA12 2.5 mg/kg IP after ligation (or none), PB 25 mg/kg IP at 1 h, 2nd h vs baseline EEG): 68%
- half-life ([4]; immature rodents): ~900 min
